Measured values from patent US4598146A, “Compound, arugomycin” (Kirin Beer Kabushiki Kaisha, priority 1983, dated 1986).

Test system: mice
Conditions: mouse, in vivo, ip

SMILES: COC(=O)C1c2cc3c(c(O)c2C(OC2CC(OC)C(OC4CC(O)C(OC5CC(OC)C(OC6CC(OC)C(OC(=O)C=CC(=O)O)C(C)O6)C(C)O5)C(C)O4)C(C)O2)CC1(C)O)C(=O)c1c(O)cc2c(c1C3=O)OC1OC2(C)C(OC2CC(O)C(OC3CC(C)([N+](=O)[O-])C(OC4CC(OC)C(O)C(C)O4)C(C)O3)C(C)O2)C(N(C)C)C1O (stereo not shown) [Arugomycin]
- LD50: 1.75 mg/kg
